Drawing on ChEMBL document CHEMBL3817775, “Kinetic and Structural Insights into the Mechanism of Binding of Sulfonamides to Human Carbonic Anhydrase by Computational and Experimental Studies” (J Med Chem, 2016), this text covers Kd for 2 compounds.

For assay [1], the target named is T1, Carbonic anhydrase 2 (Homo sapiens, UniProt P00918). Description: Binding affinity to GST-fused human carbonic anhydrase-2 expressed in Escherichia coli BL21 codon plus cells assessed as dissociation constant by SPR method. Background: In SPR one partner is held on a chip, and binding of the other changes the refractive index at the surface.
The target of assay [2] is T1, Carbonic anhydrase 2. Description: Binding affinity to GST-fused human carbonic anhydrase-2 expressed in Escherichia coli BL21 codon plus cells assessed as steady state dissociation constant by SPR method.

Take `CCc1ccc(S(N)(=O)=O)cc1`: the Kd (in general, the equilibrium constant for the complex coming apart) was found to be 98.3 µM on Carbonic anhydrase 2 [1] and 125 µM on Carbonic anhydrase 2 [2].

As to `CCCc1ccc(S(N)(=O)=O)cc1`, the Kd at Carbonic anhydrase 2 [1] worked out at 57.8 µM; on Carbonic anhydrase 2 [2], 60.6 µM.
